Results as given in US20040009921A1, “Methods and compositions for the treatment of cancer” (Allergan, Inc., priority 2002, published 2004).

What was measured:
[1] = target: T1, RXRα and ΔNβ-catenin interaction (Homo sapiens, UniProt P19793); assay: In vivo protein crosslinking and immunoprecipitation; assay type: cell-based; settings: HEK293, 1 μM AGN 4204 or vehicle before DSP crosslinking
T1 sequence (P19793 1-462): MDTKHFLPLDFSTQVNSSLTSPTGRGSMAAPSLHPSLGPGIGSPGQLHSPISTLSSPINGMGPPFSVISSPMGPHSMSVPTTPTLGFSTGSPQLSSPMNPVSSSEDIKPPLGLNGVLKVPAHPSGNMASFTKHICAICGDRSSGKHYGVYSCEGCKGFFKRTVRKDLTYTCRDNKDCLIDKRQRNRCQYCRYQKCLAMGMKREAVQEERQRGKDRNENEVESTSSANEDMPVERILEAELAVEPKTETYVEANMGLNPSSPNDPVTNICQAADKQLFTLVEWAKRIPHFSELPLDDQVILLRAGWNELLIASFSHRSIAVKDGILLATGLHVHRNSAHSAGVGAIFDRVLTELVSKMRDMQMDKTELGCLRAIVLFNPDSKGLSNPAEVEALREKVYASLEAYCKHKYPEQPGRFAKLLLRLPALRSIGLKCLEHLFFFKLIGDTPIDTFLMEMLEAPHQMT
T1 sequence (P35222 51-781 partner): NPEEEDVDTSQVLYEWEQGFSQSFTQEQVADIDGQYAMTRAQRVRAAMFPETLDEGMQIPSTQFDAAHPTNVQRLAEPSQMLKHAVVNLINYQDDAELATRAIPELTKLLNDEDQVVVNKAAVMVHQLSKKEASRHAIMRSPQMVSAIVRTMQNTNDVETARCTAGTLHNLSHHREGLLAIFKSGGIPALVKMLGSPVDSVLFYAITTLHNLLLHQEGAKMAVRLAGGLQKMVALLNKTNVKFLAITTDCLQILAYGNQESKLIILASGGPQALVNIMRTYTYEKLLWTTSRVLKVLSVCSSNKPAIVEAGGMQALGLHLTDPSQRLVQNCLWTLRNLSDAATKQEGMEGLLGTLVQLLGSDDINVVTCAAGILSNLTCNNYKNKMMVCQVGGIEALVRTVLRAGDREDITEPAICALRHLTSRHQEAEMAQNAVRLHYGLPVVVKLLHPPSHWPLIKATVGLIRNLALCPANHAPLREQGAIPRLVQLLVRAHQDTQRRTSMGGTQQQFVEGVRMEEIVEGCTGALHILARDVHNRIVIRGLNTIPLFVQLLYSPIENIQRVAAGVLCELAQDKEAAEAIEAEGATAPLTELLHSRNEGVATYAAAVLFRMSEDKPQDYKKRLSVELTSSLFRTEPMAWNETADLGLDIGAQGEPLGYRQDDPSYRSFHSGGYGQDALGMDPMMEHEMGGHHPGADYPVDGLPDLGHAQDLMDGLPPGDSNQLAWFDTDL
Description: HEK293 cells were transfected with a combination of 8 μg of ΔNβ-catenin (C) and 4 μg of RXRα. […] Cell lysates were subjected to immunoprecipitation using antibodies against the Flag tag in RXRα. Crosslinked molecules in immunoprecipitates were dissociated by reduction with β-mercaptoethanol before Western blotting analysis using HRP-conjugated antibodies against the v5 tag in ΔNβ-catenin (Top panel).
HEK293 cells were cultured to about 80% confluence in 150-mm Biocoat poly-D-Lysine plates (VWR Cat#354550), and then transfected with expression vectors for ΔN-β-catenin, and RXRα using Lipofectamine® Transfection Reagent (Invitrogen). Cells were then cultured in high glucose DMEM medium containing 10% activated charcoal-extracted fetal bovine serum.
The reaction was quenched by adding Tris buffer at pH7.5 to a final concentration of 20 mM. […]
To determine whether RXRs and β-catenin interact with each other, HEK293 cells were transfected with expression vectors for RXRα and/or ΔNβ-catenin. […] After completion of the cross-linking reaction, cell extracts were prepared and analyzed by immunoprecipitation using antibodies against the FLAG epitope in an RXRα-FLAG fusion protein, followed by Western blotting analysis using antibodies against the V5 Tag in ΔNβ-catenin. […]

β-catenin [2] = assay: Western blotting of β-catenin in CV-1 and Hela cells; assay type: cell-based; settings: CV1 and Hela cells, 0.1 μM, 17 hours
β-catenin [3] = assay: Western blotting of β-catenin protein in HEK293 cells and stable lines RBC, CAT, RmBC; assay type: cell-based, human
Description: (A) Western blotting analysis of HEK293 cells transfected with a combination of expression vectors for LacZ (2 μg), V5-tagged β-catenin(4 μg), and Flag-tagged RXRα (2 μg) as indicated below the gels. […] RXRα protein was measured using an HRP-conjugated mouse monoclonal antibody against the Flag tag. (B) Western blotting analysis of stable cell line RBC that overexpresses both β-catenin and RXRα. […] (C) Western blotting analysis of stable cell line CAT that overexpresses only β-catenin. […] Endogenous and overexpressed β-catenin were detected using a rabbit polyclonal antibody as indicated by “Total” whereas overexpressed β-catenin was analyzed using a mouse monoclonal antibody against the V5 tag. Endogenous and overexpressed RXRα were detected by a rabbit polyclonal antibody against RXRα, whereas overexpressed RXRα was determined by an HRP-conjugated mouse monoclonal antibody against the Flag tag. (D) Western blotting analysis of HEK293 cells transfected with a fixed amount of β-catenin (4 μg) plus an increasing amount of RXRα as indicated at the top. […] (E) Western blotting analysis of HEK293, CV-1, and Hela cells transfected with 2 μg of RXRα and 4 μg of wild type or mutant β-catenin. α. […] (F) Northern blotting analysis of RBC cells using β-catenin as a probe.
FIG. 4 Receptor and ligand specificity in degradation of β-catenin by retinoid receptors. HEK293 cells transfected with expression vectors for β-catenin (4 μg) and RXRs (2 μg) or RARs (2 μg) and treated with ligands at concentrations indicated at the top of each gel. Protein levels were detected by Western blotting as shown in this figure. β-catenin and RARs were detected by HRP-conjugated antibodies against their V5 tag. RXRs were detected by HRP-conjugated antibodies against their Flag tag. […] In this experiment, the amount of expression vectors for RXRα and RARs used in transfection was 1 μg.
HEK293 cells were seeded at a density of […] per dish were seeded into 100-mm dishes and cultured overnight in DMEM containing 10% FBS. Cells were transfected with 1-4 μg of various cDNA or parental expression vectors (8 μg of DNA in total) using Lipofectamine®. Five hours after transfection, cells were fed with fresh culture media DMEM containing 10% charcoal-treated FBS with vehicle DMSO or retinoids prepared in DMSO. After a given time of treatment, cells were harvested and lysed in a buffer containing 1% Nonidet® P-40, 30 mM Tris-HCl (pH7.4), 0.5 mM EDTA (pH 8.0), 150 mM NaCl, 10% glycerol, 1 mM sodium orthovanadate, 40 mM NaF, 0.5 mM phenylmethylsulfonyl fluoride (PMSF) and a cocktail of protease inhibitors (Merck).
Total cell lysates were homogenized by passing through a QIAshredder® (Qiagen) and cleared from insoluble materials by centriftigation at 12,000 g. Protein concentration was determined using a Bradford total protein assay kit (Bio-Rad). Total cell lysates were electrophoresed using a 4-12% SDS-PAGE gradient gel and transferred to either nitrocellulose or PVDF filter membranes. The membranes were blocked with 10% non-fat milk reconstituted from dairy milk powder in phosphate-buffered saline (PBS) containing 0.1% Tween®-20 (PBST). The membranes were incubated with primary antibodies at room temperature for 2 hours or at 4° C. for overnight. After the removal of unbound antibodies, membranes were incubated with horseradish peroxidase-conjugated secondary antibodies for one hour at room temperature and washed five times with PBST.

In the case of `CC(/C=C/[C@@H]1C[C@]1(C)c1ccc2c(c1)C(C)(C)CCC2(C)C)=C\C(=O)O` [AGN 4204], the “interaction between RXRα and ΔNβ-catenin (co-immunoprecipitation)” value [1] is reported as “ligand-independent”, the “degradation of ΔNβ-catenin protein” value (β-catenin [2]) is reported as “susceptible to RXR-mediated degradation” and the β-catenin protein (β-catenin [3]; CAT cells transfected with RXRα expression vector, 0.1 μM, 17 hours) is reported as “significantly reduced”. For the same molecule, the β-catenin protein (β-catenin [3]; CAT cells, low endogenous RXRα, 0.1 μM, 17 hours) was “did not cause a significant decrease of β-catenin”, the β-catenin protein (β-catenin [3]; HEK293, fixed β-catenin plus increasing amounts of RXRα vector, 0.1 μM, 17 hours) was “a proportional decrease in β-catenin” and the “intracellular β-catenin protein levels” value (β-catenin [3]; HEK293, β-catenin alone overexpressed, 0.1 μM, 6 or 15 hours) was “no significant effects”. The “degradation of β-catenin” value (β-catenin [3]; HEK293 co-expressing RXRα with RARα) was “RXR-ligand-dependent degradation”, the “amounts of β-catenin protein” value (β-catenin [3]; HEK293 co-overexpressing β-catenin and RXR, 0.1 μM, 6 or 15 hours) was “a reduction in the amounts of β-catenin protein” and the “degradation of β-catenin” value (β-catenin [3]; HEK293 overexpressing RARβ or RARγ) was “did not result in degradation of β-catenin”. For the same molecule, the “concentration effective in inducing degradation of β-catenin” value (β-catenin [3]; HEK293 transfected with β-catenin and RXRα, 17 hours) was 1 nM, the “degradation of β-catenin through RXRγ” value (β-catenin [3]; HEK293 transfected with β-catenin and RXRγ) was “able to stimulated the degradation of β-catenin through RXRγ” and the “AGN 4204-induced β-catenin degradation mediated by RXRα deletion mutants” value (β-catenin [3]; HEK293 with β-catenin and RXRα mutants, 0.1 μM, 17 hours) was “significantly reduced”. For the same molecule, the “potency in inducing β-catenin degradation” value (β-catenin [3]; HEK293 with β-catenin and RXRα, FIG. 4A) was “high potency”, the “time at which beginning of β-catenin degradation was observed” value (β-catenin [3]; RBC cells, 0.1 μM) was 6 h and the “degradation of ΔNβ-catenin protein” value (β-catenin [3]; transiently transfected HEK293 and stable line RmBC (ΔNβ-catenin and RXRα), 0.1 μM) was “degradation of αNβ-catenin was observed”.
